Test results published in PubChem BioAssay (NCI).
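Following 48 hours of exposure in 96-well plates, responses at five concentrations were used to interpolate endpoints linearly. GI50 is the concentration that inhibits growth by half. TGI: concentration producing complete growth inhibition.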 Where a SMILES comes first, the peptide text is derived from it. The star is where a group is joined. Cbz = O=C(OCc1ccccc1)*; OBn = c1ccc(CO*)cc1

Legend:
Test in all cases: inhibition of tumour cell growth, NCI panel, 48 h
COLO 205 colon = test system: COLO 205 colon
EKVX NSCLC = test system: EKVX NSCLC
HL-60(TB) leukemia = test system: HL-60(TB) leukemia
LOX IMVI melanoma = test system: LOX IMVI melanoma
NCI-H522 lung = test system: NCI-H522 lung
OVCAR-5 ovarian = test system: OVCAR-5 ovarian
RXF 393 renal = test system: RXF 393 renal
SNB-19 CNS = test system: SNB-19 CNS
U251 CNS = test system: U251 CNS
RPMI-8226 leukemia = test system: RPMI-8226 leukemia

SMILES | TGI (COLO 205 colon) | TGI (EKVX NSCLC) | TGI (HL-60(TB) leukemia) | TGI (LOX IMVI melanoma) | TGI (NCI-H522 lung) | TGI (OVCAR-5 ovarian) | TGI (RXF 393 renal) | TGI (SNB-19 CNS) | TGI (U251 CNS) | TGI (RPMI-8226 leukemia) | GI50 (HL-60(TB) leukemia) | GI50 (COLO 205 colon) | GI50 (LOX IMVI melanoma) | GI50 (NCI-H522 lung) | GI50 (OVCAR-5 ovarian) | GI50 (RPMI-8226 leukemia) | GI50 (RXF 393 renal) | GI50 (SNB-19 CNS) | GI50 (U251 CNS) | GI50 (EKVX NSCLC)
CCCNC(C#N)c1ccc(C(C#N)NCCC)cc1 (centres undefined) | > 100 µM | > 100 µM | > 100 µM | > 100 µM | > 100 µM | > 100 µM | > 100 µM | > 100 µM | > 100 µM | – | – | – | – | – | – | – | – | – | – | –
CC(=O)OC(OC(C)=O)n1cc(C=O)c2ccccc21 | > 100 µM | – | > 100 µM | > 100 µM | > 100 µM | > 100 µM | – | > 100 µM | > 100 µM | > 100 µM | – | – | – | – | – | – | – | – | – | –
O=c1[nH]nc(-c2ccccc2)n1/N=C/c1c(O)ccc2ccccc12 | > 100 µM | > 100 µM | – | > 100 µM | > 100 µM | > 100 µM | 85.2 µM | 85.4 µM | 86.4 µM | > 100 µM | – | – | – | – | – | – | – | – | – | –
CSC1=C(C#N)C(=O)N(c2ccc(C)cc2)C(=S)C1C#N (centres undefined) | > 100 µM | > 100 µM | > 100 µM | > 100 µM | > 100 µM | > 100 µM | > 100 µM | > 100 µM | > 100 µM | – | – | – | – | – | – | – | – | – | – | –
CC(C)(C)C(=O)ON1N=NC2C3CC(OCc4ccccc4)(OCc4ccccc4)C(O3)C21 (centres undefined) | 38.4 µM | – | 19 µM | 32.8 µM | – | > 100 µM | 36.5 µM | – | 31.4 µM | 49.4 µM | – | – | – | – | – | – | – | – | – | –
COC(=O)/C=C/c1cc(O)c2c(c1)[C@H](C(=O)OC)[C@@H](c1ccc(O)c(O)c1)O2 | 61.6 µM | > 85 µM | 0.0801 µM | > 82.6 µM | 0.838 µM | > 100 µM | – | – | > 100 µM | > 41 µM | 0.0293 µM | – | – | – | – | – | – | – | – | –
COC(=O)C(Cc1ccc(O)cc1)NC(=O)C(CC(=O)OCc1ccccc1)NC(=O)OCc1ccccc1 (centres undefined) (Cbz-Asp(OBn)-Tyr-OMe; configuration not given here) | 39.4 µM | 46.7 µM | 52.7 µM | – | – | 43.2 µM | 29.5 µM | 34.1 µM | 35 µM | 49.8 µM | – | – | – | – | – | – | – | – | – | –
Cc1cccc(NC(=O)C(=O)C(C(=O)c2ccccc2F)C2OC(=O)c3ccccc32)c1Cl (centres undefined) | 38.1 µM | > 100 µM | 56.2 µM | 43.3 µM | 79.9 µM | > 100 µM | – | > 100 µM | 36 µM | > 100 µM | – | – | – | – | – | – | – | – | – | –
CCSC1=C(C)N(C=NC(C)(C)C)CC1 | > 100 µM | > 100 µM | > 100 µM | > 100 µM | > 100 µM | > 100 µM | > 100 µM | > 100 µM | > 100 µM | – | – | – | – | – | – | – | – | – | – | –
O=[Se](=O)c1ccccc1.O=[Se](=O)c1ccccc1.[Cu] | 35.4 µM | – | 15.4 µM | 19.5 µM | 31.5 µM | 37.9 µM | 29.2 µM | 31.3 µM | 30.9 µM | 63.1 µM | 6.51 µM | 18.5 µM | 7.65 µM | 17.3 µM | 23 µM | 17 µM | 15.3 µM | 17.4 µM | 17.1 µM | –
COC(=O)c1cc(C#N)[nH]c1-c1ccc(C)s1 | > 100 µM | 78.6 µM | – | – | 89.7 µM | > 100 µM | 46.7 µM | > 100 µM | > 100 µM | > 100 µM | – | – | – | – | – | – | – | – | – | –
CCOC(=O)CNC(=O)C(C)NC(=O)C(NC(=O)CC(c1ncc[nH]1)c1ncc[nH]1)C(C)CC (centres undefined) | > 100 µM | > 100 µM | > 100 µM | > 100 µM | > 100 µM | > 100 µM | – | > 100 µM | > 100 µM | > 100 µM | – | – | – | – | – | – | – | – | – | –
O=[N+]([O-])c1ccc(N=Nc2c(O)c(S(=O)(=O)O)cc3cc(S(=O)(=O)O)ccc23)cc1 | > 100 µM | > 100 µM | > 100 µM | > 100 µM | > 100 µM | > 100 µM | – | > 100 µM | > 100 µM | > 100 µM | – | – | – | – | – | – | – | – | – | –
CCCCCCCCCCCCCCCCCCNc1ccn(C2OC(COP(=O)(O)OCC3OC(n4cc(C)c(=O)[nH]c4=O)CC3N=[N+]=[N-])C(O)C2O)c(=O)n1 (centres undefined) | 30.7 µM | 48.5 µM | – | 37.8 µM | 30.7 µM | 34.2 µM | – | 59.7 µM | 36.2 µM | 32.7 µM | – | – | – | – | – | – | – | – | – | –
CC(CO)C1C[C@H](O)[C@@]2(C)CC(=O)C=C(CO)[C@@H]2C1 (some centres undefined) | > 100 µM | > 100 µM | > 100 µM | > 100 µM | – | > 100 µM | > 100 µM | > 100 µM | > 100 µM | – | – | – | – | – | – | – | – | – | – | –
N#C[S-].[Nd+3].c1ccc(-c2ccccn2)nc1.c1ccc(-c2ccccn2)nc1.c1ccc(-c2ccccn2)nc1 | > 100 µM | > 100 µM | – | > 100 µM | – | – | 24.8 µM | > 100 µM | > 100 µM | – | – | 18.6 µM | 4.23 µM | – | – | – | 3.89 µM | 10.7 µM | 4.18 µM | 5.78 µM
